Measured values reported in BindingDB's records for doi:10.1074/jbc.M203194200 (Tanabe Seiyaku, 2002).

target: Oxoeicosanoid receptor 1 (Homo sapiens, UniProt Q8TDS5)
Sequence (Q8TDS5 as listed by the source): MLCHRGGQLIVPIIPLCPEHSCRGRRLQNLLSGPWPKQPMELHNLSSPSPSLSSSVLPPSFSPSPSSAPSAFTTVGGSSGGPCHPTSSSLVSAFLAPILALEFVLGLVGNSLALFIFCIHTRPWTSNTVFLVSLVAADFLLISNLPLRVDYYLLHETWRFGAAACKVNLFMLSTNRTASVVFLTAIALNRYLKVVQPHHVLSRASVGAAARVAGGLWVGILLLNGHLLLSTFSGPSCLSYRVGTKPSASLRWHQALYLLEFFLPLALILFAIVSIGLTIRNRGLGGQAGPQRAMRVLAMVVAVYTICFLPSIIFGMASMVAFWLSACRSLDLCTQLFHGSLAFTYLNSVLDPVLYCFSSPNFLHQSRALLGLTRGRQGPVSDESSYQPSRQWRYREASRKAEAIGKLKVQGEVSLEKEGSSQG

Row | Ki [µM] | SMILES
1 | 6 | CC/C=C\C/C=C\C/C=C\C/C=C\C/C=C\CCCC(=O)O [5,8,11,14,17-EICOSAPENTAENOIC ACID]
2 | 3.7 | CCCCC/C=C\C/C=C\C/C=C\CCCCCCC(=O)O [(Z,Z,Z)-8,11,14-Eicosatrienoic acid]
3 | 1.6 | CC/C=C\C/C=C\C/C=C\C/C=C\C/C=C\C/C=C\CCC(=O)O [all-cis-docosa-4,7,10,13,16,19-hexaenoic acid]
